From ChEMBL document CHEMBL4130470, “Lipid lowering agents of natural origin: An account of some promising chemotypes” (2017)

Legend:
Sus scrofa [1] = organism: Sus scrofa; test: Reduction in LDL in swine with metabolic syndrome and myocardial ischemia; assay type: functional; parameters: scale not given: the % may be the effect or the level left
Sus scrofa [2] = organism: Sus scrofa; test: Reduction in total cholesterol in swine with metabolic syndrome and myocardial ischemia; assay type: functional; parameters: scale not given: the % may be the effect or the level left
Homo sapiens [3] = organism: Homo sapiens; test: Increase in HDL-C in human at 500 mg/day; assay type: functional
Homo sapiens [4] = organism: Homo sapiens; test: Reduction in serum lipid peroxides in human at 500 mg/day; assay type: functional; parameters: scale not given: the % may be the effect or the level left
Homo sapiens [5] = organism: Homo sapiens; test: Reduction in total cholesterol in human at 500 mg/day; assay type: functional; parameters: scale not given: the % may be the effect or the level left
Homo sapiens [6] = organism: Homo sapiens; test: Reduction in triglyceride level in patient with moderate hypercholesterolemia at 20 to 80 mg/day; assay type: functional; parameters: scale not given: the % may be the effect or the level left
Homo sapiens [7] = organism: Homo sapiens; test: Reduction in LDL-C level in patient with moderate hypercholesterolemia at 20 to 80 mg/day; assay type: functional; parameters: scale not given: the % may be the effect or the level left
Homo sapiens [8] = organism: Homo sapiens; test: Reduction in total cholesterol level in patient with moderate hypercholesterolemia at 20 to 80 mg/day; assay type: functional; parameters: scale not given: the % may be the effect or the level left
Homo sapiens [9] = organism: Homo sapiens; test: Increase in HDL-C level in patient with moderate hypercholesterolemia at 20 to 80 mg/day; assay type: functional
Rattus norvegicus [10] = test: Hypercholesterolemic activity in male rat assessed as reduction in triglyceride level at 80 mg/kg/day for 7 days; assay type: functional; parameters: scale not given: the % may be the effect or the level left
Rattus norvegicus [11] = test: Hypercholesterolemic activity in male rat assessed as reduction in cholesterol level at 80 mg/kg/day for 7 days; assay type: functional; parameters: scale not given: the % may be the effect or the level left
Rattus norvegicus [12] = test: Hypercholesterolemic activity in rat assessed as reduction in cholesterol level at 80 mg/kg/day for 8 days; assay type: functional; parameters: scale not given: the % may be the effect or the level left
Rattus norvegicus [13] = test: Hypercholesterolemic activity in rat assessed as reduction in triglyceride level at 4 to 25 mg/kg/day; assay type: functional; parameters: scale not given: the % may be the effect or the level left
Rattus norvegicus [14] = test: Hypercholesterolemic activity in rat assessed as reduction in plasma cholesterol level at 4 to 25 mg/kg/day; assay type: functional; parameters: scale not given: the % may be the effect or the level left
Hamster [15] = test: Increase in hepatic LDLR mRNA hyperlipidemic hamster relative to untreated control; assay type: functional, Cricetinae
Homo sapiens [16] = test: Reduction in LDL-C level in hypercholesterolemic patient dosed for 3 months; assay type: functional; parameters: scale not given: the % may be the effect or the level left
Homo sapiens [17] = test: Reduction in triglyceride level in hypercholesterolemic patient dosed for 3 months; assay type: functional; parameters: scale not given: the % may be the effect or the level left
Homo sapiens [18] = test: Reduction in total cholesterol level in hypercholesterolemic patient dosed for 3 months; assay type: functional; parameters: scale not given: the % may be the effect or the level left
Hamster [19] = test: Reduction in serum LDL-C level hyperlipidemic hamster relative to untreated control; assay type: functional, Cricetinae; parameters: scale not given: the % may be the effect or the level left
Hamster [20] = test: Reduction in serum total cholesterol level hyperlipidemic hamster relative to untreated control; assay type: functional, Cricetinae; parameters: scale not given: the % may be the effect or the level left
Hamster [21] = test: Increase in hepatic LDLR protein hyperlipidemic hamster relative to untreated control; assay type: functional, Cricetinae
Hamster [22] = test: Antidyslipidemic activity in HFD-fed dyslipidemic hamster assessed as HDLC/total cholesterol at 50 mg/kg; assay type: functional, Cricetinae
Hamster [23] = test: Antidyslipidemic activity in HFD-fed dyslipidemic hamster assessed as reduction in serum glycerol at 50 mg/kg; assay type: functional, Cricetinae; parameters: scale not given: the % may be the effect or the level left
Hamster [24] = test: Antidyslipidemic activity in HFD-fed dyslipidemic hamster assessed as reduction in serum total cholesterol at 50 mg/kg; assay type: functional, Cricetinae; parameters: scale not given: the % may be the effect or the level left
Hamster [25] = test: Antidyslipidemic activity in HFD-fed dyslipidemic hamster assessed as reduction in serum triglyceride level at 50 mg/kg; assay type: functional, Cricetinae; parameters: scale not given: the % may be the effect or the level left
Rattus norvegicus [26] = test: Increase in HDL-C level in rat dosed for 7 days; assay type: functional
Rattus norvegicus [27] = test: Reduction in LDL-C level in rat dosed for 7 days; assay type: functional; parameters: scale not given: the % may be the effect or the level left
Homo sapiens [28] = organism: Homo sapiens; test: Reduction in LDL-C level in patient with heterozygous familial hypercholesterolaemia at 40 mg/day; assay type: functional; parameters: scale not given: the % may be the effect or the level left
Homo sapiens [29] = organism: Homo sapiens; test: Increase in HDL-C level in patient with heterozygous familial hypercholesterolaemia at 40 mg/day; assay type: functional
Homo sapiens [30] = organism: Homo sapiens; test: Reduction in triglyceride level in patient with heterozygous familial hypercholesterolaemia at 40 mg/day; assay type: functional; parameters: scale not given: the % may be the effect or the level left

Q: Which results are given for `Oc1ccc(/C=C/c2cc(O)cc(O)c2)cc1` [RESVERATROL]?
A: Activity (Sus scrofa [1]): 30%; Activity (Sus scrofa [2]): 33%

Q: `COc1cc(/C=C/C(=O)CC(=O)/C=C/c2ccc(O)c(OC)c2)ccc1O` [CURCUMIN] was tested. Which Activity (Homo sapiens [3]) did it give?
A: The Activity was 29%.

Q: And the Activity (Homo sapiens [4])?
A: Its Activity is 33%.

Q: What about the Activity (Homo sapiens [5]) of the same compound?
A: Its Activity is 12%.

Q: How did the Activity (Homo sapiens [6]) turn out when `CC[C@H](C)C(=O)O[C@H]1C[C@@H](C)C=C2C=C[C@H](C)[C@H](CC[C@@H]3C[C@@H](O)CC(=O)O3)[C@H]21` [LOVASTATIN] was run?
A: The Activity was 10 - 19%.

Q: What about the Activity (Homo sapiens [7]) of the same compound?
A: Its Activity is 24 - 40%.

Q: What about the Activity (Homo sapiens [8]) of the same compound?
A: The Activity was 17 - 29%.

Q: And the Activity (Homo sapiens [9])?
A: The Activity was 6.6 - 9.5%.

Q: What does the source list for `C/C=C/c1cc(OC)c(OC)cc1OC` [TRANS-ASARONE]?
A: Activity (Rattus norvegicus [10]): 42%; Activity (Rattus norvegicus [11]): 57%; Activity (Rattus norvegicus [12]): 38%; Activity (Rattus norvegicus [13]): 40 - 60%; Activity (Rattus norvegicus [14]): 40 - 60%

Q: With `COc1ccc2cc3[n+](cc2c1OC)CCc1cc2c(cc1-3)OCO2` [BERBERINE] as the compound, how does the “fold change (FC)” value (Hamster [15]) read?
A: Its value is 3.5.

Q: And the Activity (Homo sapiens [16])?
A: Its Activity is 25%.

Q: And the Activity (Homo sapiens [17])?
A: The Activity was 35%.

Q: And the Activity (Homo sapiens [18])?
A: The Activity was 29%.

Q: What about the Activity (Hamster [19]) of the same compound?
A: Its Activity is 42%.

Q: And the Activity (Hamster [20])?
A: The Activity was 40%.

Q: And the “fold change (FC)” value (Hamster [21])?
A: Its value is 2.6.

Q: With `CC(C)=CCC/C(C)=C/CC/C(C)=C/CC/C(C)=C\CC/C(C)=C\CC/C(C)=C\CC/C(C)=C\CC/C(C)=C\CC/C(C)=C\CC/C(C)=C\CC/C(C)=C\CC/C(C)=C\CO` as the compound, how does the Activity (Hamster [22]) read?
A: Its Activity is 26%.

Q: And the Activity (Hamster [23])?
A: Its Activity is 12%.

Q: What about the Activity (Hamster [24]) of the same compound?
A: Its Activity is 25%.

Q: What about the Activity (Hamster [25]) of the same compound?
A: The Activity was 42%.

Q: What does the source list for `C/C=C/c1cc(OC)c(OC)c(OC)c1`?
A: Activity (Rattus norvegicus [26]): 56%; Activity (Rattus norvegicus [27]): 47%

Q: Which results are given for `CCC(C)(C)C(=O)O[C@H]1C[C@@H](C)C=C2C=C[C@H](C)[C@H](CC[C@@H]3C[C@@H](O)CC(=O)O3)[C@H]21` [SIMVASTATIN]?
A: Activity (Homo sapiens [28]): 43 - 45%; Activity (Homo sapiens [29]): 10 - 13%; Activity (Homo sapiens [30]): 21 - 31%
